Results published in patent US20220396825A1, “METHOD FOR PREPARING […]” (KAO CORPORATION, priority 2019, published 2022).
“And” between values parts separate entries of the source, which are not always exact repeats. Equal entries are not always repeated.

Experiments:
Type in all cases: cell-based, Salmonella typhimurium
genome of TA100 strain [1] = test: Mutation frequency in 3-MC-exposed library by sequencing utilizing information on complementary strands
Description: The flows of a sequencing method and mutation analysis used in Comparative Examples and Examples described later will be described in the following. Fundamentally, the highly accurate sequencing method utilizing information on complementary strands, which is described in Patent Literature 4, was used. Specifically, a library was subjected to sequencing, and read pairs expected to be derived from the same DNA fragment were collected. Then, a consensus read sequence (a consensus read sequence considering complementary strands) was generated among read sequences expected to be derived from two complementary strands (hereinafter, referred to as strand A and strand B) of the DNA fragment. Acquired consensus read sequences considering complementary strands were used for mutation analysis.
(§1) DMSO-exposed cells were prepared with the same procedure as in 1) of Comparative Example 1, and TA100 strain was exposed to 3-methylcholanthrene (3-MC) with the same procedure. In DMSO, 3-MC (produced by Sigma-Aldrich Co. LLC., CASRN.56-49-5) was dissolved. Into test tubes, 100 μL of the 3-MC solution, 500 μL of S9 mix (produced by IEDA TRADING Corporation), and 100 μL of the pre-culture solution for TA100 strain were added (amount of 3-MC: 1000 μg/tube), and the resultants were subjected to shaking culture at 100 rpm in a water bath at 37° C. for 20 minutes (3-MC-exposed cells). Cells were collected from the bacterial suspensions, and DNA was extracted with the same procedure as in 1) of Comparative Example 1.
From DNA derived from the DMSO-exposed cells or the 3-MC-exposed cells, a plurality of samples each of which was to give 60 ng or 100 ng of DNA were prepared, and the samples were each fragmented into pieces having a length of approximately 350 bp on average by using a DNA Shearing System ME220. The fragments of each sample were divided into two groups. For the group without nuclease treatment (nontreatment group), the DNA fragments were suspended in Resuspension buffer attached to the TruSeq for End Repair in the subsequent step in accordance with the recommended protocol to afford 60 μL of eluate. For the group with nuclease treatment (treatment group), the DNA fragments were purified through steps of adsorbing on Sample Purification Beads attached to the TruSeq (hereinafter, also expressed as beads, simply), washing twice with 80% ethanol water, and drying in accordance with the recommended protocol. In the subsequent elution operation, the beads were suspended in distilled water (DW, produced by NIPPON GENE CO., LTD.) to afford 30 μL of DNA eluate containing DNA fragments.
To the DNA eluate obtained in I), 4 μL of 10× Reaction Buffer attached to the S1 nuclease was added. The S1 nuclease was appropriately diluted with 1× Reaction Buffer, 1, 3, 10, 30, 100, or 300 U thereof was added to the DNA eluate, and DW was added thereto to a total volume of 40 μL. For the sample to which 1000 U of the S1 nuclease was to be added, 4.6 μL of 10× Reaction Buffer was added to 30 μL of the DNA eluate obtained by beads purification, and 12 μL of the stock solution of the S1 nuclease was added thereto to a total volume of 46 μL. Each reaction solution with the S1 nuclease was incubated at 30° C. for 30 minutes. Assuming that the whole amount of DNA (60 ng) present at the beginning of library preparation existed in each reaction solution, the numbers of units of the S1 nuclease per 1 ng of DNA were 0.02, 0.05, 0.17, 0.50, 1.67, 5.00, and 16.7 U/ng. For inactivation of the S1 nuclease in each reaction solution, 3 μL of 0.5 M EDTA (pH 8.0) (produced by NIPPON GENE CO., LTD.) was added, and the resultant was incubated at 70° C. for 10 minutes. […]

genome of TA100 strain [2] = test: as above; remark: listed apart in the source
TA100 strain = test: Ames test (pre-incubation method), number of revertant colonies; conditions: S9 mix; for Number of revertants: individual plates 1-3; for Number of revertants, Mean: mean of three plates
Description: Exposure of the TA100 cell line to DMSO was performed in accordance with the Ames pre-incubation method (Mol. Mech. Mutagen., 455:29-60, 2000, Sci. Rep. 8 (1):9583). TA100 strain was seeded in 2 mL of Nutrient Broth No. 2 (produced by Oxoid Limited), and subjected to shaking culture at 37° C. and 180 rpm for 4 hours to afford pre-culture solution with an OD660 value of 1.0 or higher. Into test tubes, 100 μL of DMSO, 500 μL of S9 mix (produced by IEDA TRADING Corporation), and 100 μL of the pre-culture solution were added, and the resultants were subjected to shaking culture at 100 rpm in a water bath at 37° C. for 20 minutes (DMSO-exposed cells). After shaking culture for 20 minutes, the test tubes each containing a culture solution were taken out of the water bath, and 50 μL of each culture solution was added to 2 mL of Nutrient Broth solution (containing 18.5% S9 mix) aliquoted in advance, and the resultant was further cultured in an incubator at 37° C. and 180 rpm for 14 hours. After the culture, the bacterial suspensions were collected and centrifuged at 7,500 rpm for 5 minutes, and the supernatants were removed to collect the cells. From the DMSO-exposed cells, total DNA was collected by using a DNeasy Blood & Tissue Kit (produced by QIAGEN) in accordance with the recommended protocol. The double-stranded DNA concentration of each DNA sample obtained was measured by using a Qubit3.0 Fluorometer (produced by Thermo Fisher Scientific) with a Qubit™ dsDNA BR Assay Kit attached thereto.
as §1, with “([…]),” for “(amount of 3-MC: 1000 μg/tube),”
For the Ames test, a bacterial suspension exposed to 3-MC under the above-described conditions was prepared. Thereto, 2 mL of top agar (containing 1% NaCl, 1% agar, 0.05 mM histidine, and 0.05 mM biotin) warmed to 45° C. was added and the resultant was stirred by using a Vortex, and poured onto a minimal glucose agar medium (Tesmedia® AN; produced by Oriental Yeast Co., Ltd.) to form a layer. The resulting plate was subjected to culturing at 37° C. for 48 hours, and the number of colonies observed was counted.

Which “SN ratio determined from mean values of GC→TA mutation frequency” value (genome of TA100 strain [1]; 3-MC vs DMSO control, without MBN treatment, each n=3) does the source give for Cc1ccc2cc3c(ccc4ccccc43)c3c2c1CC3 [3-MC, 3-methylcholanthrene] here?
The value was 1.61.

What about the “mean value of mutation frequency for GC→TA” value (genome of TA100 strain [1]; 3-MC-exposed, without MBN treatment, n=3) of the same compound?
The value was 0.176×10^−6.

And the “GC → TA mutation frequency increase rate (3MC/DMSO control), SN ratio” value (genome of TA100 strain [1]; MBN experiment, MBN 0 U/ng (nontreatment))?
The value was 2.04.

What about the “GC → TA mutation frequency increase rate (3MC/DMSO control), SN ratio” value (genome of TA100 strain [1]; RecJf experiment, RecJf 0 U/ng (nontreatment)) of the same compound?
Its value is 2.04.

What about the “GC → TA mutation frequency increase rate (3MC/DMSO control), SN ratio” value (genome of TA100 strain [1]; library S1 nuclease 0 U/ng (nontreatment)) of the same compound?
Its value is 1.27.

What about the “GC → TA mutation frequency increase rate (3MC/DMSO control), SN ratio” value (genome of TA100 strain [1]; library treated with MBN 0.03 U/ng) of the same compound?
The value was 1.60.

What about the “GC → TA mutation frequency increase rate (3MC/DMSO control), SN ratio” value (genome of TA100 strain [1]; library treated with MBN 0.10 U/ng) of the same compound?
The value was 1.81.

And the “GC → TA mutation frequency increase rate (3MC/DMSO control), SN ratio” value (genome of TA100 strain [1]; library treated with MBN 0.30 U/ng)?
The value was 1.34.

And the “GC → TA mutation frequency increase rate (3MC/DMSO control), SN ratio” value (genome of TA100 strain [1]; library treated with MBN 1.00 U/ng)?
The value was 1.92.

What about the “GC → TA mutation frequency increase rate (3MC/DMSO control), SN ratio” value (genome of TA100 strain [1]; library treated with RecJf 1.00 U/ng) of the same compound?
The value was 1.94.

What about the “GC → TA mutation frequency increase rate (3MC/DMSO control), SN ratio” value (genome of TA100 strain [1]; library treated with S1 nuclease 0.02 U/ng) of the same compound?
The value was 2.1.

And the “GC → TA mutation frequency increase rate (3MC/DMSO control), SN ratio” value (genome of TA100 strain [1]; library treated with S1 nuclease 0.05 U/ng)?
The value was 1.97.

And the “GC → TA mutation frequency increase rate (3MC/DMSO control), SN ratio” value (genome of TA100 strain [1]; library treated with S1 nuclease 0.17 U/ng)?
The value was 2.72.

What about the “GC → TA mutation frequency increase rate (3MC/DMSO control), SN ratio” value (genome of TA100 strain [1]; library treated with S1 nuclease 0.50 U/ng) of the same compound?
Its value is 3.75.

What about the “GC → TA mutation frequency increase rate (3MC/DMSO control), SN ratio” value (genome of TA100 strain [1]; library treated with S1 nuclease 1.67 U/ng) of the same compound?
Its value is 3.35.

What about the “GC → TA mutation frequency increase rate (3MC/DMSO control), SN ratio” value (genome of TA100 strain [1]; library treated with S1 nuclease 5.00 U/ng) of the same compound?
Its value is 1.63.

And the “GC → TA mutation frequency increase rate (3MC/DMSO control), SN ratio” value (genome of TA100 strain [1]; library treated with S1 nuclease 16.7 U/ng)?
The value was 3.59.

And the “GC → TA mutation frequency increase rate (3MC/DMSO control), SN ratio” value (genome of TA100 strain [2]; library treated with RecJf 0.03 U/ng)?
The value was 1.48.

What about the “GC → TA mutation frequency increase rate (3MC/DMSO control), SN ratio” value (genome of TA100 strain [2]; library treated with RecJf 0.10 U/ng) of the same compound?
The value was 2.14.

What about the “GC → TA mutation frequency increase rate (3MC/DMSO control), SN ratio” value (genome of TA100 strain [2]; library treated with RecJf 0.30 U/ng) of the same compound?
The value was 1.68.

And the Number of revertants (TA100 strain; 3-MC 10 μg/plate)?
Its Number of revertants is 887 and 881 and 1279.

And the “Number of revertants, Mean” value (TA100 strain; 3-MC 10 μg/plate)?
The value was 1016.

And the Number of revertants (TA100 strain; 3-MC 20 μg/plate)?
The Number of revertants was 1539 and 1484 and 1509.

And the “Number of revertants, Mean” value (TA100 strain; 3-MC 20 μg/plate)?
The value was 1511.

What about the Number of revertants (TA100 strain; 3-MC 100 μg/plate) of the same compound?
The Number of revertants was 1519 and 1539 and 1797.

And the “Number of revertants, Mean” value (TA100 strain; 3-MC 100 μg/plate)?
The value was 1618.
